Assay results: patent publication US10098975B2, “Labeled pkg-1-alpha-binding compounds and their use in imaging and quantifying pain” (THE TRUSTEES OF COLUMBIA UNIVERSITY IN THE CITY OF NEW YORK, priority 2013, dated 2018)

Assays:
models of chronic pain = assay: Rat models of chronic pain (mechanical allodynia, thermal hyperalgesia); type: in vivo; details: injected into rats, FIG. 6
Source text: (§1) Evaluation of neuroma pain was made possible with the advent of a novel protocol in rats whereby the end of a transected tibial nerve is transposed and then anchored just beneath the skin of the ankle. This allows the allodynia from the neuroma to be evaluated by systematically applying pressure to the overlying skin and observing whether the rat raises the leg.

PKG = target: T1, PKG (Homo sapiens, UniProt Q13976); assay: IC50 of NOP46 for PKG; type: biochemical
T1 sequence (Q13976 1-671): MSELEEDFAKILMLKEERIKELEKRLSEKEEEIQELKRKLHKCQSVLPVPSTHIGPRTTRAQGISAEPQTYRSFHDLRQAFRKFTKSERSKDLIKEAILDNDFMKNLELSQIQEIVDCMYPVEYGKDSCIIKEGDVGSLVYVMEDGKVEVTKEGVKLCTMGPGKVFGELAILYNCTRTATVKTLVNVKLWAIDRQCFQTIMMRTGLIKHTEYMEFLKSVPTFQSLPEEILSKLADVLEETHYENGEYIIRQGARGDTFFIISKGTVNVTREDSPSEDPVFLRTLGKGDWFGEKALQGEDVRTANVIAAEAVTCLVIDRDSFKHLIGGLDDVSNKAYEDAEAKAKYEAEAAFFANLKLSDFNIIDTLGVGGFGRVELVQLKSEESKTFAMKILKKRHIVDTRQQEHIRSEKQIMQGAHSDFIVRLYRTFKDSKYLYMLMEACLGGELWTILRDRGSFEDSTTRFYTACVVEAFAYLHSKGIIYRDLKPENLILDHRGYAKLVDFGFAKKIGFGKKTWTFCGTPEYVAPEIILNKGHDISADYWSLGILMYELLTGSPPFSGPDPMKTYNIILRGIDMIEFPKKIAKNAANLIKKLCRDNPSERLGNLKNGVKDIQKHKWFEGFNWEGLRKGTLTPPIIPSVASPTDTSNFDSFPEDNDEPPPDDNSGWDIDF

[1] = Stability in blood in vitro; type: in vitro ADME
[2] = Distribution to dorsal root ganglion and CNS after injection; type: in vivo
[3] = Clearance from circulation after intravenous injection; type: in vivo; details: following intravenous injection
neuroma pain = assay: Tibial neuroma transposition model of neuroma pain in rats; type: in vivo; details: transected tibial nerve transposed beneath ankle skin
Source text: as §1

[4] = Microsome preparations (metabolism); type: in vitro ADME
[5] = Tissue distribution studies; type: in vivo; details: initial levels
PKG1alpha(h) = target: T2, PKG1alpha(h) (Homo sapiens, UniProt Q13976); assay: Kinase panel (287 kinases, optimal ATP): PKG1alpha(h); type: biochemical; details: assayed in 287 kinases at their optimal ATP concentrations
T2 sequence (Q13976 1-671): T1 sequence (Q13976 1-671)
Method: Its kinase inhibiting activity was assayed in 287 kinases at their optimal ATP concentrations. Members of all the kinome families were represented.

Protein Kinase A (PKA) = Protein Kinase A (PKA) (Homo sapiens, UniProt P17612); assay: IC50 of NOP46 for Protein Kinase A; type: biochemical

**Q.** With `CCCOc1ccc(OC)c(F)c1C(=O)c1ccc(C(=O)N[C@@H]2CNC[C@H]2NC(=O)c2ccc3[nH]ncc3c2)cc1` [NOP46, N-((3R,4R)-4-(4-(2-fluoro-3-methoxy-6-propoxybenzoyl)benzamido)pyrrolidin-3-yl)-1H-indazole-5-carboxamide] as the compound, how does the Mechanical allodynia (models of chronic pain) read?
**A.** alleviated mechanical allodynia

**Q.** What about the Thermal hyperalgesia (models of chronic pain) of the same compound?
**A.** alleviated

**Q.** And the IC50 (PKG)?
**A.** 7.5 nM

**Q.** What about the “Kinetic analysis: mode of inhibition” value (PKG; with respect to the ATP site) of the same compound?
**A.** non-competitive inhibitor of the ATP site

**Q.** What about the Stability in blood [1] of the same compound?
**A.** stable in blood in vitro

**Q.** And the “Entry into the central nervous system” value [2]?
**A.** does not enter the central nervous system

**Q.** And the “Time to reach the DRG” value [2]?
**A.** ≤ 30 min

**Q.** And the “Stability within the ganglion” value ([2]; dorsal root ganglion)?
**A.** at least 24 h

**Q.** And the “Clearance from the circulation” value [3]?
**A.** rapidly cleared from the circulation

**Q.** And the Neuroma pain (neuroma pain)?
**A.** alleviates neuroma pain

**Q.** And the Metabolic degradation pathway [4]?
**A.** degraded by carbonyl reduction and depropylation

**Q.** What about the “Tissue level in the liver” value [5] of the same compound?
**A.** high initial levels of NOP46 in the liver

**Q.** What about the “Selectivity of kinase inhibition” value (PKG1alpha(h)) of the same compound?
**A.** selectively inhibits activated PKG1alpha

**Q.** What about the IC50 (Protein Kinase A (PKA)) of the same compound?
**A.** 2000 nM
